From patent US9439438B2 (priority 2011, dated 2016)
Where two headings read alike, the source gives them in different places.

Columns and labels:
GPP130 [1] = target: T1, GPP130 (Homo sapiens, UniProt O00461); type: cell-based
T1 sequence (O00461 1-696): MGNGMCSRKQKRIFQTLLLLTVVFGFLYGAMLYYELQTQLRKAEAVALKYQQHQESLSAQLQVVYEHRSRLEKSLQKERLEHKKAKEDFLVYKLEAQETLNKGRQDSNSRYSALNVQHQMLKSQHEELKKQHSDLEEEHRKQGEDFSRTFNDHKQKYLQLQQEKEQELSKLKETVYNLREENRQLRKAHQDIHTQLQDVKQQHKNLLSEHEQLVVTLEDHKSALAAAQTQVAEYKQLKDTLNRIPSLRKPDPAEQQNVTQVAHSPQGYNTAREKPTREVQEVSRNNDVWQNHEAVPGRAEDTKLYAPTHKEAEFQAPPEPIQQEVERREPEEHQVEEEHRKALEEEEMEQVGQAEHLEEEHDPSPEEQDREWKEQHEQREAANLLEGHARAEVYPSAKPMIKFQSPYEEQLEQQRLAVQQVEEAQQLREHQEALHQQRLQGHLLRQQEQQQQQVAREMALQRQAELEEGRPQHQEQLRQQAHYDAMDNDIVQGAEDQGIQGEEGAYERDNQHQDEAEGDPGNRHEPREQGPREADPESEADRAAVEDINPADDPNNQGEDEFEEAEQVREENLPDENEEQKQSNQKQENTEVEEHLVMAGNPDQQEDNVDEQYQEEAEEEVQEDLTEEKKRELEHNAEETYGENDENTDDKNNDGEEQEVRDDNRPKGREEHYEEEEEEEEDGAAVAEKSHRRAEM

HeLa cells [2] = type: cell-based
HeLa cells [3] = type: cell-based; remark: listed apart in the source
[4] = test system: vesicular stomatitis virus G protein; type: cell-based
HeLa cells [5] = type: cell-based; remark: listed apart in the source
GPP130 [6] = target: T1, GPP130; type: cell-based; remark: listed apart in the source
HeLa cells [7] = type: cell-based; remark: listed apart in the source
mice [8] = settings: mouse, in vivo
HeLa cells [9] = test system: HeLa cells
HeLa cells [10] = test system: HeLa cells; remark: listed apart in the source
mice [11] = settings: mouse, in vivo, ip
mice [12] = settings: mouse, in vivo, ip, 100 mg/kg
[13] = in vivo; cited from earlier work

Compound: [Cl][Mn][Cl] [Mn, MnCl2]
- GPP130 in cells after Mn (GPP130 [1]): lacked GPP130
- STxB reaching the ER (STxB-KDEL) (GPP130 [1]): STxB did not reach the ER
- STxB trafficking from the cell surface to the Golgi (GPP130 [1]): STxB accumulated in peripheral punctate structures resembling endosomes
- cholera toxin B-subunit (CTxB) trafficking (HeLa cells [2]): no difference between Mn-treated and control cells
- epidermal growth factor (EGF) internalization and degradation (HeLa cells [3]): did not affect
- ER-to-cell surface trafficking of vesicular stomatitis virus G protein [4]: did not affect
- localization or trafficking of GP73, TGN46 and Lamp2 (HeLa cells [5]): did not alter
- sorting of STxB into endosomal tubules (GPP130 [6]): abolished
- cellular STxB level (toxin degradation) (HeLa cells [7]): dramatic loss of STxB
- time at which STxB is degraded in Mn-treated cells (HeLa cells [7]): 1 to 2 h
- STx1-induced renal damage (kidney histology) (mice [8]): no STx1-induced renal damage
- complete protection against lethal STx1 evident (mice [8]): not
- health and survival after lethal STx1 (mice [8]): all Mn-treated animals remained healthy and survived
- protection against lethal STx1 (mice [8]): Complete protection
- cell viability (MTT) (HeLa cells [9]): did not affect cell viability
- STx1 concentration, relative to the LD50, at which 50% cell death was not evident (HeLa cells [10]): > 2000 fold
- estimated protection factor (HeLa cells [10]): 3800
- protection against STx-induced cell death (HeLa cells [10]): 3800 fold
- viability with Mn by itself (HeLa cells [10]): did not compromise viability
- apparent LD50 (mice [11]): 125 mg/kg
- paralysis and lethality (mice [11]; 100 mg/kg): Paralysis and lethality were not seen at any time
- paralysis and lethality (mice [11]; 150 mg/kg): got paralyzed within a few hours and were then euthanized
- paralysis and lethality (mice [11]; 250 mg/kg): got paralyzed within minutes and died
- paralysis and lethality (mice [11]; 500 mg/kg): got paralyzed within minutes and died
- body weight, locomotor activity and demeanor (mice [12]): significantly lost weight, exhibited a depressed, lethargic attitude accompanied with diminished locomotor activity
- clearance from the system [13]: cleared from the system within hours
